Assay results: PubChem BioAssay (NCI)
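Step 1: Grow cells in 96-well plates. Step 2: Expose to compound for 48 hours at 5 concentrations. Step 3: Interpolate endpoints linearly; if unreached, use highest concentration. Abbreviation: GI50, concentration required for 50% inhibition of growth. TGI denotes the concentration required for complete inhibition of growth.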

Assays:
Experiment in all cases: NCI-60 cell line screen, 48 h
[1] = system: RPMI-8226 leukemia
[2] = system: 786-0 renal
[3] = system: SN12C renal
[4] = system: HL-60(TB) leukemia
[5] = system: HCT-15 colon
[6] = system: OVCAR-3 ovarian
[7] = system: HOP-62 NSCLC
[8] = system: SW-620 colon
[9] = system: SNB-75 CNS
[10] = system: BT-549 breast

Row | Compound | TGI [1] | TGI [2] | TGI [3] | TGI [4] | TGI [5] | TGI [6] | TGI [7] | TGI [8] | TGI [9] | GI50 [1] | GI50 [2] | GI50 [3] | GI50 [4] | GI50 [5] | GI50 [6] | GI50 [7] | GI50 [8] | GI50 [9] | GI50 [10] | TGI [10]
1 | Cc1ccc(C2=[N+]([O-])c3ccccc3C2=O)cc1 | > 72 µM | 69.4 µM | 37.8 µM | 33.6 µM | 42 µM | 32.2 µM | > 100 µM | > 55.2 µM | > 100 µM |  |  |  |  |  |  |  |  |  |  | 
2 | O=NN(CCCl)C(=O)NCc1ccc[n+]([O-])c1 | > 100 µM | > 100 µM | > 100 µM | > 100 µM | > 100 µM | > 100 µM | > 100 µM | > 100 µM |  |  |  |  |  |  |  |  |  |  |  | 
3 | O=C(c1ccccc1)c1ccc2cccc(O)c2n1 | > 100 µM | 51.6 µM | > 100 µM |  | > 100 µM | > 100 µM | > 100 µM | 32.4 µM | > 100 µM |  |  |  |  |  |  |  |  |  |  | 
4 | N.N.NCCCCN.O=C([O-])CC(=O)[O-].O=C([O-])CC(=O)[O-].[Pt+4].[Pt+4] | > 100 µM | > 100 µM | > 100 µM | > 100 µM | > 100 µM | > 100 µM | > 100 µM | > 100 µM | > 100 µM | > 100 µM | 57.3 µM | 58.5 µM | 11.5 µM | > 100 µM | > 100 µM | > 100 µM | > 100 µM | > 100 µM |  | 
5 | N#C[C@]12CC3(CC[C@H]1CC1(C2)OCCO1)OCCO3 | > 100 µM | > 100 µM | > 100 µM | > 100 µM | > 100 µM | > 100 µM | > 100 µM | > 100 µM | > 100 µM |  |  |  |  |  |  |  |  |  |  | 
6 | Cc1ccc(C)c(-n2c(-c3ccc(Br)cc3)csc2=NC(=O)c2ccccc2F)c1 |  | > 100 µM | > 100 µM | > 100 µM | > 100 µM | > 100 µM | > 100 µM | > 100 µM | > 100 µM |  | > 100 µM | > 100 µM | 2.82 µM | > 100 µM | > 100 µM | > 100 µM | > 100 µM | > 100 µM | > 100 µM | > 100 µM
7 | O=[N+]([O-])c1ccc(OCCNc2cccc3ccccc23)cc1 | > 100 µM | > 100 µM | > 100 µM |  | > 100 µM | > 100 µM | > 100 µM | > 100 µM | > 100 µM |  |  |  |  |  |  |  |  |  |  | 
8 | CCCCCCC(O)C/C=C/CCCCCC/C(C(=O)OC)=C(/O)C(=O)OCC (stereo not given) | > 100 µM | > 100 µM | > 100 µM | > 100 µM | > 100 µM | > 100 µM | > 100 µM | > 100 µM | > 100 µM |  |  |  |  |  |  |  |  |  |  | 
9 | CC(C)(C)C(=O)Nc1ccccc1Br | > 100 µM | > 100 µM | > 100 µM | > 100 µM | > 100 µM | > 100 µM | > 100 µM | > 100 µM | > 100 µM |  |  |  |  |  |  |  |  |  |  | 
10 | O=C1NC(=O)C2=C1CCC2O (stereo not given) | > 100 µM | > 100 µM | > 100 µM | > 100 µM | > 100 µM | > 100 µM | > 100 µM | > 100 µM | > 100 µM |  |  |  |  |  |  |  |  |  |  | 
